# Assay results taken from patent US10532054B2, “Compounds for the prevention and treatment of cardiovascular diseases” (Resverlogix Corp., priority 2007, dated 2020).
# Structures can show the parent of a compound that is named as a salt.
row,SMILES,melting point
1,"COc1cc(OC)c2c(=O)[nH]c(-c3cc(C)c(O)c(C)c3)cc2n1 (as salt: HCl) [Example 16, 7-(4-hydroxy-3,5-dimethylphenyl)-2,4-dimethoxy-1,6-naphthyridin-5(6H)-one]",> 324 °C
2,"COc1cc(OC)c2cnc(-c3cc(C)c(OCCN4CCOCC4)c(C)c3)cc2c1 (as salt: HCl) [Example 22, 4-(2-(4-(6,8-dimethoxyisoquinolin-3-yl)-2,6-dimethylphenoxy)ethyl)morpholine]",239 to 240 °C
3,"COc1cc(OC)c2cnc(-c3cc(C)c(O)c(C)c3)cc2c1 (as salt: hydrochloride) [Example 18, 4-(6,8-dimethoxyisoquinolin-3-yl)-2,6-dimethylphenol]",255 to 256 °C
4,"COc1cc(OC)c2c(=O)[nH]c(-c3cc(C)c(OCCN4CCOCC4)c(C)c3)nc2c1 (as salt: hydrochloride) [Example 21, 2-(3,5-dimethyl-4-(2-morpholinoethoxy)phenyl)-5,7-dimethoxyquinazolin-4(3H)-one]",185 to 187 °C
5,"COc1cc(OC)c2c(=O)[nH]c(-c3ccccn3)nc2c1 (as salt: hydrochloride) [Example 26, 5,7-dimethoxy-2-(pyridin-2-yl)quinazolin-4(3H)-one]",215 to 217 °C
6,"COc1cc(OC)c2c(=O)[nH]c(-c3cccnc3)nc2c1 (as salt: hydrochloride) [Example 27, 5,7-dimethoxy-2-(pyridin-3-yl)quinazolin-4(3H)-one]",257 to 259 °C
7,"Cc1cc(-c2nc3ccccc3c(=O)[nH]2)cc(C)c1OCCN1CCOCC1 (as salt: hydrochloride) [Example 34, 2-(3,5-dimethyl-4-(2-morpholinoethoxy)phenyl)quinazolin-4(3H)-one]",300 to 302 °C
8,"CCN1CCN(Cc2ccc(-c3nc4cc(OC)cc(OC)c4c(=O)[nH]3)cc2)CC1 (as salt: hydrochloride) [Example 67, 2-(4((4-ethylpiperazin-1-yl)methyl)phenyl)-5,7-dimethoxyquinazolin-4(3H)-one]",278 to 280 °C (dec.)
9,"Oc1ccc(-c2cc3ncccc3cn2)cc1 [Example 5, 4-(1,6-naphthyridin-7-yl)phenol]",219 to 221 °C
10,"COc1cc(OC)c2c(=O)[nH]c(-c3cc(C)c(OCC(C)(C)O)c(C)c3)cc2c1 [Example 14, 3-(4-(2-hydroxy-2-methylpropoxy)-3,5-dimethylphenyl)-6,8-dimethoxyisoquinolin-1(2H)-one]",252 to 254 °C
11,"COc1cc(OC)c2c(=O)[nH]c(-c3cc(C(C)(C)C)c(O)c(C(C)(C)C)c3)nc2c1 [Example 28, 2-(3,5-di-tert-butyl-4-hydroxyphenyl)-5,7-dimethoxyquinazolin-4(3H)-one]",229.7 to 230.5 °C
12,"COc1cc(OC)cc(-c2nc3cc(OC)cc(OC)c3c(=O)[nH]2)c1 [Example 29, 2-(3,5-dimethoxyphenyl)-5,7-dimethoxyquinazolin-4(3H)-one]",270 to 272 °C
13,"COc1cc(OC)c2c(=O)[nH]c(-c3ccc(O)c(OC)c3)nc2c1 [Example 31, 2-(4-hydroxy-3-methoxyphenyl)-5,7-dimethoxyquinazolin-4(3H)-one]",294 to 296 °C
14,"COc1cc(OC)c2c(=O)[nH]c(-c3ccc(O)c(Cl)c3)nc2c1 [Example 32, 2-(3-chloro-4-hydroxyphenyl)-5,7-dimethoxyquinazolin-4(3H)-one]",279 to 281 °C
15,"Cc1cc(-c2nc3ccccc3c(=O)[nH]2)cc(C)c1OCCO [Example 35, 2-(4-(2-hydroxyethoxy)-3,5-dimethylphenyl)quinazolin-4(3H)-one]",260 to 261 °C
16,"COc1cc(OC)c2c(=O)[nH]c(-c3ccc(N(C)C)c4ccccc34)nc2c1 [Example 37, 2-(4-(dimethylamino)naphthalen-1-yl)-5,7-dimethoxyquinazolin-4(3H)-one]",269 to 271 °C
17,"O=C(O)COc1ccc(-c2nc3ccccc3c(=O)[nH]2)cc1 [Example 39, 2-(4-(4-oxo-3,4-dihydroquinazolin-2-yl)phenoxy)acetic acid]",285 to 287 °C
18,"CN(C)c1ccc(-c2nc3ccccc3c(=O)[nH]2)c2ccccc12 [Example 40, 2-(4-(dimethylamino)naphthalen-1-yl)quinazolin-4(3H)-one]",224 to 226 °C
19,"NC(=O)COc1ccc(-c2nc3ccccc3c(=O)[nH]2)cc1 [Example 41, 2-(4-(4-oxo-3,4-dihydroquinazolin-2-yl)phenoxy)acetamide]",277.5 to 278.5 °C
20,"O=c1[nH]c(-c2ccc(N(CCO)CCO)cc2)nc2ccccc12 [Example 45, 2-(4-(bis(2-hydroxyethyl)amino)phenyl)quinazolin-4(3H)-one]",228 to 230 °C
21,"COc1cc2nc(-c3ccc(N(CCO)CCO)cc3)[nH]c(=O)c2cc1OC [Example 47, 2-(4-(bis(2-hydroxyethyl)amino)phenyl)-6,7-dimethoxyquinazolin-4(3H)-one]",268 to 270 °C

# Next, values leading:
row,melting point,SMILES
1,> 350 °C,"Cc1cc(-c2cc3ncccc3c(=O)[nH]2)cc(C)c1O (as salt: HCl) [Example 8, 7-(4-hydroxy-3,5-dimethylphenyl)-1,6-naphthyridin-5(6H)-one]"
2,261 to 263 °C,"COc1cc(OC)c2c(=O)[nH]c(-c3cc(C)c(OCCN(C)C)c(C)c3)cc2c1 (as salt: hydrochloride) [Example 10, 3-(4-(2-(dimethylamino)ethoxy)-3,5-dimethylphenyl)-6,8-dimethoxyisoquinolin-1(2H)-one]"
3,281 to 283 °C,"Cc1cc(-c2cc3ccc(CN4CCOCC4)cc3c(=O)[nH]2)cc(C)c1O (as salt: hydrochloride) [Example 11, 3-(4-hydroxy-3,5-dimethylphenyl)-7-(morpholinomethyl)isoquinolin-1(2H)-one]"
4,> 330 °C,"COc1cc(O)nc2cc(-c3cc(C)c(O)c(C)c3)[nH]c(=O)c12 (as salt: hydrochloride) [Example 12, 2-hydroxy-7-(4-hydroxy-3,5-dimethylphenyl)-4-methoxy-1,6-naphthyridin-5(6H)-one]"
5,195 to 198 °C,COc1cc(OC)c2c(=O)[nH]c(-c3cc(C)c(OCCN4CCN(C)CC4)c(C)c3)cc2c1 (as salt: hydrochloride) [Example 23]
6,294 to 295 °C,"COc1cc(OC)c2c(=O)[nH]c(-c3ccncc3)nc2c1 (as salt: hydrochloride) [Example 33, 5,7-dimethoxy-2-(pyridin-4-yl)quinazolin-4(3H)-one]"
7,275 to 277 °C,"COc1cc(OC)c2c(=O)[nH]c(-c3ccc(CN4CCN(C)CC4)cc3)nc2c1 (as salt: hydrochloride) [Example 59, 5,7-dimethoxy-2-(4((4-methylpiperazin-1-yl)methyl)phenyl)quinazolin-4(3H)-one]"
8,284 to 286 °C,"Cc1cc(-c2nc3ccc(CN4CCOCC4)cc3c(=O)[nH]2)cc(C)c1O (as salt: hydrochloride) [Example 62, 2-(4-hydroxy-3,5-dimethylphenyl)-6-(morpholinomethyl)quinazolin-4(3H)-one]"
9,206 to 208 °C (dec.),"COc1cc(OC)c2c(=O)[nH]c(-c3ccc(CN4CCOCC4)cc3)nc2c1 (as salt: hydrochloride) [Example 66, 5,7-dimethoxy-2-(4-(morpholinomethyl)phenyl)quinazolin-4(3H)-one]"
10,239 to 241 °C,"O=c1[nH]c(-c2ccc(O)cc2)cc2ccccc12 [Example 1, 3-(4-Hydroxyphenyl)-2H-isoquinolin-1-one]"
11,218 to 219 °C,"Oc1ccc(-c2cc3ccccc3cn2)cc1 [Example 2, 4-lsoquinolin-3-yl-phenol]"
12,245 to 247 °C,"COc1cc(OC)c2c(=O)[nH]c(-c3ccc(O)cc3)cc2c1 [Example 6, 3-(4-hvdroxyphenyl)-6,8-dimethoxyisoquinolin-1(2H)-one]"
13,253 to 254 °C,"COc1cc(OC)c2c(=O)n(C)c(-c3cc(C)c(O)c(C)c3)cc2c1 [Example 7, 3-(4-hydroxy-3,5-dimethylphenyl)-6,8-dimethoxy-2-methylisoquinolin-1(2H)-one]"
14,246.6 to 247.4 °C,"COc1cc2c(c(OC)c1)S(=O)(=O)NC(c1cc(C)c(O)c(C)c1)=C2 [Example 15, 6,8-dimethoxy-3-(4-hydroxy-3,5-dimethylphenyl)-2H-1,2-benzothiazine-1,1-dioxide]"
15,246 to 248 °C,"COc1cc2cc(-c3cc(C)c(O)c(C)c3)n(C)c(=O)c2c(OC)c1C [Example 17, 3-(4-hydroxy-3,5-dimethylphenyl)-6,8-dimethoxy-2,7-dimethylisoquinolin-1(2H)-one]"
16,276 to 277 °C,"COc1ccc(-c2nc3cc(OC)cc(OC)c3c(=O)[nH]2)cc1 [Example 30, 5,7-dimethoxy-2-(4-methoxyphenyl)quinazolin-4(3H)-one]"
17,267 to 268 °C (dec.),"O=c1[nH]c(-c2ccc3c(c2)OCCO3)nc2ccccc12 [Example 36, 2-(2,3-dihydrobenzo[b][1,4]dioxin-6-yl)quinazolin-4(3H)-one]"
18,309 to 311 °C,"COc1cc(OC)c2c(=O)[nH]c(-c3ccc(OCC(N)=O)cc3)nc2c1 [Example 38, 2-(4-(5,7-dimethoxy-4-oxo-3,4-dihydroquinazolin-2-yl)phenoxy)acetamide]"
19,307.5 to 309.6 °C,"COc1cc(OC)c2c(=O)[nH]c(-c3ccc4c(c3)OCCO4)nc2c1 [Example 42, 2-(2,3-dihydrobenzo[b][1,4]dioxin-6-yl)-5,7-dimethoxyquinazolin-4(3H)-one]"
20,235.5 to 236.5 °C,COc1cc2nc(-c3ccc(N(C)C)c4ccccc34)[nH]c(=O)c2cc1OC [Example 44]
21,249 to 251 °C,"COc1cc(OC)c2c(=O)[nH]c(-c3ccc(N(CCO)CCO)cc3)nc2c1 [Example 46, 2-(4-(bis(2-hydroxyethyl)amino)phenyl)-5,7-dimethoxyquinazolin-4(3H)-one]"
22,316.4 to 318.2 °C,"COc1cc2nc(-c3ccc4c(c3)OCCO4)[nH]c(=O)c2cc1OC [Example 48, 2-(2,3-dihydrobenzo[b][1,4]dioxin-6-yl)-6,7-dimethoxyquinazolin-4(3H)-one]"
